Results on 1 compound are retold here after US5232933A, “Method for treatment of neurodegenerative diseases” (R. J. Reynolds Tobacco Company, priority 1992, dated 1993).

The assay has as its target high affinity nicotinic receptors. Nature of the assay: Inhibition of L-[3H]nicotine binding to mouse brain membranes. More on the design: species or system Mice (DBA strain). The note with it: 2 hr incubation at 4° C., Ki calculated from IC50 by method of Cheng. How it is done: Mice (DBA strain) were maintained on a 12 hour light/dark cycle and were allowed free access to water and food supplied by Wayne Lab Blox, Madison, Wis. Animals used in the present studies were 60 to 90 days of age and weighed 20 to 25 g. Brain membrane preparations were obtained from pooled brain tissue of both males and females.
Mice were killed by cervical dislocation. Brains were removed and placed on an ice-cold platform. […] Protein was determined by the method of Lowry, et al., J. Biol. Chem., Vol. 193, pp. 265-275 (1951), using bovine serum albumin as the standard.
The binding of L-[^3 H]nicotine was measured using a modification of the method of Romano, et al., Science, Vol 210 pp. 647-650 (1980) as described previously by Marks, et al., Mol. Pharmacol., Vol. 30, pp. 427-436 (1986). The binding of L-[^3 H]nicotine was measured using a 2 hr. incubation at 4° C. […] Nonspecific binding was determined by inclusion of 10 μM nonradioactive nicotine in the incubations. The inhibition of L-[^3 H]nicotine binding by test compounds was determined by including one of eight different concentrations of the test compound in the incubation. […] Inhibition constant (Ki values) were calculated from the IC50 values using the method of Cheng, et al., Biochem. Pharmacol., Vol. 22, pp. 3099-3108 (1973). […]

As for `c1ccc(C2CCCN2)nc1` (racemic) [alpha-nornicotine], the inhibitory constant (Ki) (in general, the equilibrium dissociation constant of an inhibitor or competing ligand from its target) was 5.7 µM.
